Source: patent US20120251662A1, “ANTIMICROBIAL POWDERS FOR THE PREPARATION OF BAKERY PRODUCTS” (Caravan Ingredients Inc., priority 2011, published 2012)

System: mold
Assay: Mold growth on white bread loaves (Dough Formulation A) coated with antimicrobial powders, Example 1
Experimental: All of the ingredients except for the salt were added to a 20 qt Hobart mixer, and mixed with a spiral hook on the 1st speed setting (low) for two minutes. […] The salt was added, followed by mixing at the 2nd speed setting for an additional 3 minutes until full dough development. […] Next, a Gemini Straight Grain Moulder was used, according to the settings in Table 4 below, to sheet and mould the dough pieces. The shaped dough pieces were then evenly coated with 2 grams of various antimicrobial powders containing different antimicrobial agents, as described below, and then placed into 1-lb loaf pans. […] After baking, the loaves were removed from the oven and […]. The loaves were cooled on wire racks for 1 hour and then bagged in poly bags with twist ties. […] Each of the antimicrobial powders used above was prepared by adding the ingredients in the tables below to a 5 qt Hobart mixer and blending with a paddle attachment for 10 minutes.

Row | Compound | Mold Inhibition
1 | CCC(=O)[O-].CCC(=O)[O-].[Ca+2] [Calcium Propionate] | Slightly Effective
2 | O=C(O)/C=C/C(=O)O [Fumaric Acid] | Slightly Effective
3 | C[C@@H]1C/C=C/C=C/C=C/C=C/[C@H](O[C@@H]2O[C@H](C)[C@@H](O)[C@H](N)[C@@H]2O)C[C@@H]2O[C@](O)(C[C@@H](O)C[C@H]3O[C@@H]3/C=C/C(=O)O1)C[C@H](O)[C@H]2C(=O)O [Natamycin, reference compound] | Effective
4 | C/C=C/C=C/C(=O)[O-].[K+] [Potassium Sorbate] | Effective
5 | O=C([O-])c1ccccc1.[Na+] [Sodium Benzoate] | Moderately Effective
6 | CC(=O)O.CC(=O)[O-].[Na+] [Sodium Diacetate] | Moderately Effective
7 | CCC(=O)[O-].[Na+] [Sodium Propionate] | Moderately Effective
8 | C/C=C/C=C/C(=O)O [Sorbic Acid] | Effective
9 | Polylysine | Moderately Effective
